Results from paper PMC4998004, “aPKC Inhibition by Par3 CR3 Flanking Regions Controls Substrate Access and Underpins Apical-Junctional Polarization” (Developmental Cell, 2016).
Residue numbers refer to the chain shown, from its start. Each block holds one molecule with its values, some of them ahead of it. Non-standard residues stand in square brackets, D forms with d. Residues, ends and D or L forms follow the SMILES beside them. No end group written: not given here. pS = N[C@@H](COP(=O)(O)O)C(=O)O

Columns and labels:
[1] = target: T1, PKCιKD-2P (primed human PKC-iota kinase domain) (Homo sapiens, UniProt P41743, C595S); test: In vitro kinase assay (ADP Quest), peptide as substrate, Michaelis-Menten kinetics; assay type: biochemical; details: for increase of apparent kcat relative to wild-type Par3CR3: phosphorylation by PKCιKD-2P, Figures 5A and 5C
T1 construct: encoding residues 248–596 (GenBank: NM_002740.5); GST (followed by a 3C protease site) (N, cleaved yes); made in house; host or cells: Hi5 insect cells, baculovirus, co-infected with a PDK-1 virus
T1 sequence (P41743 248-596 C595S): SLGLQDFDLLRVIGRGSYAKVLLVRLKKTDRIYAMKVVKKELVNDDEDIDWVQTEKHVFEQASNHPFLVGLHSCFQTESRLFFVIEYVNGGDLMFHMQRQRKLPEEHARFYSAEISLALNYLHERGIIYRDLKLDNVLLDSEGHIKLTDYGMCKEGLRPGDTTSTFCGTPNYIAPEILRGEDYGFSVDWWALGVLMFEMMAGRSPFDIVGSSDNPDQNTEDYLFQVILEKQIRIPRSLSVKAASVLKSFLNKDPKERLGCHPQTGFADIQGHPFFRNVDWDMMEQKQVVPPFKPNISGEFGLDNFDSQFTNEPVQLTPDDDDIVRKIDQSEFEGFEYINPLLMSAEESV
Protocol: (§1) The ADP Quest kit (DiscoveRx) was used to determine the kcat app and KM app values for ATP against the PKCιKD-1P and PKCιKD-2P using a series of synthetic peptide substrates as described by [Kjaer et al. (2013)]. The reactions were measured every 2 min for 30 min in a 384-well plate using a Safire^2 plate reader (Tecan). The kinetic constants were determined by fitting the data to the Michaelis-Menten equation. Data are represented as mean ± SEM. Fluorescence anisotropy assays were performed to determine the KD for each peptide labeled with a fluorescein tag following standard protocols using a Safire^2 plate reader (Tecan). The anisotropy values were normalized and the KD was determined using non-linear regression. All experiments were performed in triplicate and for at least three independent protein preparations.
The ADP Quest kit (DiscoveRx) was used to determine the kcat app and Km app values for ATP against the PKCι KD-1P and PKCι KD-2P. The assay uses a coupled reaction to convert ADP to a product that has a fluorescence excitation at 530 nm and emission at 590 nm. Several synthetic peptide substrates were used including a model peptide […]
(§2) ([…]) derived from a PKCε pseudo-substrate sequence with an alanine-serine change. We found this peptide to be an efficient substrate peptide for aPKC isozymes. Peptides from human Par3CR3 (residues 816-835) and F-X-R short […]
peptide ([…]) related to the Nishikawa and co-workers consensus were also used in the study (Nishikawa et al., 1997). For the kcat app and Km app reactions, the ATP concentration ranged from 0-200 µM, while the synthetic peptide substrates were kept constant at 200 µM to avoid product inhibition. The reactions were measured every two minutes for 30 minutes in a 384-well plate using a Safire 2 plate reader (Tecan). The kinetic constants were determined by fitting the data to Michaelis–Menten equation using the graphics program Prism (GraphPad Prism, version 5.0d, GraphPad Software). […]

[2] = target: T1, PKCιKD-2P (primed human PKC-iota kinase domain); test: Fluorescence anisotropy binding assay with fluorescein-labelled peptides; details: for Kd: Figure S4D, fluorescein-labelled εPSS peptides
Protocol: as §1, with “preparations. […]” for “preparations.”
Several synthetic peptide substrates were used including a model peptide […]
as §2
peptide ([…]) related to the Nishikawa and co-workers consensus were also used in the study (Nishikawa et al., 1997). […]
The kinetic constants were determined by fitting the data to […]
Fluorescence anisotropy binding assays
Fluorescence anisotropy assays were performed to determine the Kd for each peptide following a previously described protocol (Guettler et al., 2008). Binding assays were performed in 20 mM Tris pH 7.5, 50 mM NaCl, 5% glycerol and 0.5 mM TCEP. The reaction mixtures contained fluorescein labelled peptides at a constant 50 nM concentration, while the protein concentration ranged from 0-200 µM. The 20 µl reactions were carried out in 384-well plate and measured after 30 minutes on the Safire2 plate reader (Tecan) with the excitation at 470 nm and emission at 525 nm. […]

[3] = target: T2, human PKC-iota kinase domain, primed active form (PKCιKD-2P) (human, UniProt P41743 248-596, phosphothreonine at 412 and 564 (pT412, pT564)); test: cell-based or functional assay
T2 sequence (looked up): T1 sequence (P41743 248-596 C595S) with S348C

[4] = target: T3, human PKC-iota kinase domain, primed active form (PKCιKD-2P) (human, UniProt P41743 248-596, phosphothreonine at 412 and 564 (pT412, pT564)); test: FP
T3 chain: T1 sequence (P41743 248-596 C595S) with S348C

Molecule: CSCC[C@H](NC(=O)[C@H](CO)NC(=O)[C@H](CCC(N)=O)NC(=O)[C@H](CCCNC(=N)N)NC(=O)CNC(=O)[C@H](Cc1ccccc1)NC(=O)CNC(=O)[C@H](CCC(=O)O)NC(=O)[C@H](CCCNC(=N)N)NC(=O)[C@H](CCC(N)=O)NC(=O)[C@H](Cc1ccccc1)NC(=O)[C@H](C)NC(=O)[C@@H](N)CC(C)C)C(=O)N[C@@H](CO)C(=O)N[C@@H](CCC(=O)O)C(=O)N[C@@H](C)C(=O)N[C@@H](C)C(=O)N[C@H](C(=O)N[C@@H](CCCCN)C(=O)N[C@@H](CCC(N)=O)C(=O)O)[C@@H](C)O [Par-3CR3AAT] (H-LAFQREGFGRQSMSEAATKQ-OH; N-terminus and C-terminus assumed)
increase of apparent kcat relative to wild-type Par3CR3 [1]: 18 fold

Molecule: CSCC[C@H](NC(=O)[C@H](CO)NC(=O)[C@H](CCC(N)=O)NC(=O)[C@H](CCCNC(=N)N)NC(=O)CNC(=O)[C@H](Cc1ccccc1)NC(=O)CNC(=O)[C@H](CCC(=O)O)NC(=O)[C@H](C)NC(=O)[C@H](CCC(N)=O)NC(=O)[C@H](C)NC(=O)[C@H](C)NC(=O)[C@@H](N)CC(C)C)C(=O)N[C@@H](CO)C(=O)N[C@@H](CCC(=O)O)C(=O)N[C@@H](CCCCN)C(=O)N[C@@H](CCCNC(=N)N)C(=O)N[C@H](C(=O)N[C@@H](CCCCN)C(=O)N[C@@H](CCC(N)=O)C(=O)O)[C@@H](C)O [Par-3CR3AXA] (H-LAAQAEGFGRQSMSEKRTKQ-OH; N-terminus and C-terminus assumed)
increase of apparent kcat relative to wild-type Par3CR3 [1]: 57 fold

Molecule: CSCC[C@H](NC(=O)[C@H](COP(=O)(O)O)NC(=O)[C@H](CCC(N)=O)NC(=O)[C@H](CCCNC(=N)N)NC(=O)CNC(=O)[C@H](Cc1ccccc1)NC(=O)CNC(=O)[C@H](CCC(=O)O)NC(=O)[C@H](CCCNC(=N)N)NC(=O)[C@H](CCC(N)=O)NC(=O)[C@H](Cc1ccccc1)NC(=O)[C@H](C)NC(=O)[C@@H](N)CC(C)C)C(=O)N[C@@H](CO)C(=O)N[C@@H](CCC(=O)O)C(=O)N[C@@H](CCCCN)C(=O)N[C@@H](CCCNC(=N)N)C(=O)N[C@H](C(=O)N[C@@H](CCCCN)C(=O)N[C@@H](CCC(N)=O)C(=O)O)[C@@H](C)O [Par-3CR3pS827] (H-LAFQREGFGRQ[pS]MSEKRTKQ-OH; N-terminus and C-terminus assumed)
interaction with / affinity for PKCιKD-2P (in words) [2]: two orders of magnitude lower

Molecule: CSCC[C@H](NC(=O)[C@H](C)NC(=O)[C@H](CCC(N)=O)NC(=O)[C@H](CCCNC(=N)N)NC(=O)CNC(=O)[C@H](Cc1ccccc1)NC(=O)CNC(=O)[C@H](CCC(=O)O)NC(=O)[C@H](CCCNC(=N)N)NC(=O)[C@H](CCC(N)=O)NC(=O)[C@H](Cc1ccccc1)NC(=O)[C@H](C)NC(=O)[C@@H](N)CC(C)C)C(=O)N[C@@H](CO)C(=O)N[C@@H](CCC(=O)O)C(=O)N[C@@H](CCCCN)C(=O)N[C@@H](CCCNC(=N)N)C(=O)N[C@H](C(=O)N[C@@H](CCCCN)C(=O)N[C@@H](CCC(N)=O)C(=O)O)[C@@H](C)O [S827A] (H-LAFQREGFGRQAMSEKRTKQ-OH; N-terminus and C-terminus assumed)
kcat app ([1]; Figure 5A, ADP Quest, read every 2 min for 30 min, Michaelis-Menten fit, mean ± SEM): 0.0167 ± 0.0017 s⁻¹

Molecule: A-X-A + A-A-T: Par3CR3 combining both site 1 and site 3 mutations (LAAQAEGFGRQSMSEAATK)
interaction with / affinity for PKCιKD-2P (in words) [2]: no measurable interaction
phosphorylation as substrate by PKCι in vitro (in words) ([1]; in vitro kinase assay): not detectably phosphorylated

Molecule: LAAQAEGFGRQSMSEKRTK (also: fluorescein label (position not given here)) [Par3CR3 A-X-A mutant peptide (F-Q-R to A-Q-A, site 1 affinity arm)]
fold increase of the apparent kcat of Par3CR3 phosphorylation by PKCιKD-2P, in vitro kinase assay [3]: 57 fold
Kd [4]: 228 µM

Molecule: LAFQREGFGRQSMSEAATK (also: fluorescein label (position not given here)) [Par3CR3 A-A-T mutant peptide (K-R-T to A-A-T, site 3 inhibitory arm)]
fold increase of the apparent kcat of Par3CR3 phosphorylation by PKCιKD-2P, in vitro kinase assay [3]: 18 fold
Kd [4]: 424 µM

Further lines, results first:

Kd [2]: 16.4 ± 3.5 µM
Molecule: CSCC[C@H](NC(=O)[C@H](CCCNC(=N)N)NC(=O)[C@@H](N)CCC(=O)O)C(=O)N[C@@H](CCCNC(=N)N)C(=O)N1CCC[C@H]1C(=O)N[C@@H](CCCNC(=N)N)C(=O)N[C@@H](CCCCN)C(=O)N[C@@H](CCCNC(=N)N)C(=O)N[C@@H](CCC(N)=O)C(=O)NCC(=O)N[C@@H](CO)C(=O)N[C@H](C(=O)N[C@@H](CCCNC(=N)N)C(=O)N[C@@H](CCCNC(=N)N)C(=O)N[C@@H](CCCNC(=N)N)C(=O)N[C@@H](Cc1ccccc1)C(=O)N[C@@H](Cc1c[nH]cn1)C(=O)N[C@@H](CCC(N)=O)C(=O)N[C@H](C(=O)N[C@@H](CC(N)=O)C(=O)O)C(C)C)C(C)C [ε +5Fpss] (H-ERMRPRKRQGSVRRRFHQVN-OH)

Kd [2]: 1.8 ± 0.1 µM
Molecule: CSCC[C@H](NC(=O)[C@H](CCCNC(=N)N)NC(=O)[C@@H](N)CCC(=O)O)C(=O)N[C@@H](CCCNC(=N)N)C(=O)N1CCC[C@H]1C(=O)N[C@@H](Cc1ccccc1)C(=O)N[C@@H](CCCCN)C(=O)N[C@@H](CCCNC(=N)N)C(=O)N[C@@H](CCC(N)=O)C(=O)NCC(=O)N[C@@H](CO)C(=O)N[C@H](C(=O)N[C@@H](CCCNC(=N)N)C(=O)N[C@@H](CCCNC(=N)N)C(=O)N[C@@H](CCCNC(=N)N)C(=O)N[C@H](C(=O)N[C@@H](Cc1c[nH]cn1)C(=O)N[C@@H](CCC(N)=O)C(=O)N[C@H](C(=O)N[C@@H](CC(N)=O)C(=O)O)C(C)C)C(C)C)C(C)C [ε -5Fpss] (H-ERMRPFKRQGSVRRRVHQVN-OH)

Kd [2]: 13.3 ± 2.1 µM
Molecule: CSCC[C@H](NC(=O)[C@H](CCCNC(=N)N)NC(=O)[C@@H](N)CCC(=O)O)C(=O)N[C@@H](CCCNC(=N)N)C(=O)N1CCC[C@H]1C(=O)N[C@@H](CCCNC(=N)N)C(=O)N[C@@H](CCCCN)C(=O)N[C@@H](CCCNC(=N)N)C(=O)N[C@@H](CCC(N)=O)C(=O)NCC(=O)N[C@@H](CO)C(=O)N[C@H](C(=O)N[C@@H](CCCNC(=N)N)C(=O)N[C@@H](CCCNC(=N)N)C(=O)N[C@@H](CCCNC(=N)N)C(=O)N[C@H](C(=O)N[C@@H](Cc1c[nH]cn1)C(=O)N[C@@H](CCC(N)=O)C(=O)N[C@H](C(=O)N[C@@H](CC(N)=O)C(=O)O)C(C)C)C(C)C)C(C)C [εpss, reference compound] (H-ERMRPRKRQGSVRRRVHQVN-OH)

Kd [4]: 115 µM
Molecule: LAFQREGFGRQ[pS]MSEKRTK (also: fluorescein label (position not given here)) [phospho-S827 Par3 peptide (PKCι reaction product)]
